Data as given in PMC8600679, “Substituted Two- to Five-Ring Polycyclic Aromatic Compounds Are Potent Agonists of Atlantic Cod (Gadus morhua) Aryl Hydrocarbon Receptors Ahr1a and Ahr2a” (Environmental Science & Technology, 2021).
Like-named read-outs stand apart in the source and are kept apart here.

Experiments:
[1] = system: rat AHR; parameters: method as in PMID 17941736, PMID 25108069; details: H4IIE-luc reporter assay; cited from earlier work
[2] = target: T1, Atlantic cod Ahr2a (Gadus morhua, UniProt A0A6H1Z3G8); test: cell-based
T1 sequence (A0A6H1Z3G8 1-1127): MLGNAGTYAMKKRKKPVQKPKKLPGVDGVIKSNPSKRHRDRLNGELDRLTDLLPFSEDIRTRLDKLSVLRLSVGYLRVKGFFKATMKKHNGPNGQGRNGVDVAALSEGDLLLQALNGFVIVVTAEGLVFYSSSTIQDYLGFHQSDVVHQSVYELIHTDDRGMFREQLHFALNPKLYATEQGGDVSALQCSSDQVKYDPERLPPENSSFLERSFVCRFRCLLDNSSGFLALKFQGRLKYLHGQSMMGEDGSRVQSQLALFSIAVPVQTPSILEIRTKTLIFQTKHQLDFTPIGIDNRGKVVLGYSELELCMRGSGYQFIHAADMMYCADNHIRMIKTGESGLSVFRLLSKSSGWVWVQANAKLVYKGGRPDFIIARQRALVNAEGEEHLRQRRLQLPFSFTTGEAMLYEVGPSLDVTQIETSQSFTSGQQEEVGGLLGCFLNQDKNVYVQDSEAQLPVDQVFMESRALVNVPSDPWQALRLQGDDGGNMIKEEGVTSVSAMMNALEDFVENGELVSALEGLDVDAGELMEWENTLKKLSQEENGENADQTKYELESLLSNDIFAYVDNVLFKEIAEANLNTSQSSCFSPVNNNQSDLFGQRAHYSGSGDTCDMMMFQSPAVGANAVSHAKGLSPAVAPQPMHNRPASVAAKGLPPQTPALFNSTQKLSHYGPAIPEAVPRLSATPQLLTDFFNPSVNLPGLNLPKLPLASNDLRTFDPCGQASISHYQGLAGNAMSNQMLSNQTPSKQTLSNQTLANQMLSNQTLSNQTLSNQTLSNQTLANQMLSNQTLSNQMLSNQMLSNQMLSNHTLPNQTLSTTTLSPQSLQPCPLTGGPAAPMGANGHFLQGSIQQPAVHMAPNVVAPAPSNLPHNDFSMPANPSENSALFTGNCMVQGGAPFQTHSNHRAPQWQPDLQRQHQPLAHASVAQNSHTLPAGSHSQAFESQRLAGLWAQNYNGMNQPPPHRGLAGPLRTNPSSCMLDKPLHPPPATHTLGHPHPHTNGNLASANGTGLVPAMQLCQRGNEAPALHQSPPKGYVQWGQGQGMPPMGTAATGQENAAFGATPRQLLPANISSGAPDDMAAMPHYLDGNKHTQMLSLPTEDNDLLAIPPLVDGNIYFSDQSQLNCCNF

[3] = target: Atlantic cod Ahr1a (Gadus morhua, UniProt A0A6H1Z2L5); test: cell-based
[4] = EC25 of TCDD divided by concentration of PAC giving 25% of TCDD response
[5] = Welch's t-test, Supporting Table S6

Sequence of Atlantic cod Ahr1a (A0A6H1Z2L5 1-957): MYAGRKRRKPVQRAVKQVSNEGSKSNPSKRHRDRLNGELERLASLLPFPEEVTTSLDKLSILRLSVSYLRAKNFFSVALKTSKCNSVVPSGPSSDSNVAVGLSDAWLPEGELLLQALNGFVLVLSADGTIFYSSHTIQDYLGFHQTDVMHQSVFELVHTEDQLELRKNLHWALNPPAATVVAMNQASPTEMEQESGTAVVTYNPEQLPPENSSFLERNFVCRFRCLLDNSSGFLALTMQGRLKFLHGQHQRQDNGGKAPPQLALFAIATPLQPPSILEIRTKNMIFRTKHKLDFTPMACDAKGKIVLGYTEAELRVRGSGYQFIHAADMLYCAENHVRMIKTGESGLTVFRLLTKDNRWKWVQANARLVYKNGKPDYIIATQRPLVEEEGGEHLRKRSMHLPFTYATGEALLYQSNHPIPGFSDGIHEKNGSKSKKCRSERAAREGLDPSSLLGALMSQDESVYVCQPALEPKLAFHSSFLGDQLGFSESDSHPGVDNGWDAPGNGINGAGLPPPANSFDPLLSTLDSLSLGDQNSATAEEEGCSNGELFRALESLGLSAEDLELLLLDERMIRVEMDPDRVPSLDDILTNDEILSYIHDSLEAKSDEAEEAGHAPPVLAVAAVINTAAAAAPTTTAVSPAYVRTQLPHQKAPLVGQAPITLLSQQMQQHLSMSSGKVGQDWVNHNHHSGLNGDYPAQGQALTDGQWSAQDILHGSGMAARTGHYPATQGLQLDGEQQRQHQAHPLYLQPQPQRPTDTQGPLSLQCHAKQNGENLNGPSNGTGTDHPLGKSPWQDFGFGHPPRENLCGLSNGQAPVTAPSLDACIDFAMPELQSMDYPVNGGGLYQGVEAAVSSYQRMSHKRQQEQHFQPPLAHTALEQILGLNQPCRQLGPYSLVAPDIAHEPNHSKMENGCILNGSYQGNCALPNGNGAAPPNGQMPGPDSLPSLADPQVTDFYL
Sequence of Atlantic cod Ahr1a (A0A8C5CZZ9 1-645 partner): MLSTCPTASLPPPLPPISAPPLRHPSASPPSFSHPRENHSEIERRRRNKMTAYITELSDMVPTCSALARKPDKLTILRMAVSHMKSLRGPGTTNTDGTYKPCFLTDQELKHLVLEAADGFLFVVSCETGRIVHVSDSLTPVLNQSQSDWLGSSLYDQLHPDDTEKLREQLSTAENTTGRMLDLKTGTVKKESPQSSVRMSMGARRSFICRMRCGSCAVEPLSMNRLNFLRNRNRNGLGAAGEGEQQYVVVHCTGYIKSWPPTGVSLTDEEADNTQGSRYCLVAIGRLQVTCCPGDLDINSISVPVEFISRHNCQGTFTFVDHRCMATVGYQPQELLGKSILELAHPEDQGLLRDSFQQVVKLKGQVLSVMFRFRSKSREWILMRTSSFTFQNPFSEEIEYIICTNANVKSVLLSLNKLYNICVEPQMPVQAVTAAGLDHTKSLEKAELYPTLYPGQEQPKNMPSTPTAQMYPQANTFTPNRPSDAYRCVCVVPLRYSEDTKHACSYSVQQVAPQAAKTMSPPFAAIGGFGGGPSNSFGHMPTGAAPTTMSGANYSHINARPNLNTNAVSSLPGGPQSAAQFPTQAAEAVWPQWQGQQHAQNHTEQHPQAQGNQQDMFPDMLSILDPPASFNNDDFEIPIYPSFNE

SMILES	EC50 [1] [nM]	EC50 ([2]; Ahr2a EC50 (nM), COS-7 cells, 24 h exposure) [nM]	Emax ([2]; COS-7, read-out: Ahr2a Relative Emax (%)) [%]	EC50 ([3]; Ahr1a EC50 (nM), COS-7 cells, 24 h exposure) [nM]	Emax ([3]; COS-7, read-out: Ahr1a Relative Emax (%)) [%]	EC50 ([2]; COS-7 cells, 24 h exposure, read-out: Ahr2a EC50) [nM]	Ahr2a REP25 [2, 4]	EC50 ([2]; Supplementary Table S5, read-out: Potency (EC50, nM) Ahr2a) [nM]	Efficacy compared to TCDD via Ahr2a [2, 5]	Activation of Ahr2a (agonist or not) ([2]; in vitro transactivation)	Emax ([2]; percent of maximum efficacy determined for TCDD, COS-7 cells, 24 h exposure, None = no agonistic response significantly different from solvent, read-out: Ahr2a Relative Emax (%)) [%]	melting point [°C]	EC50 ([3]; COS-7 cells, 24 h exposure, read-out: Ahr1a EC50) [nM]	Ahr1a REP25 [3, 4]	Efficacy compared to TCDD with Ahr1a [3, 5]	Activation of Ahr1a (agonist or not) ([3]; in vitro transactivation)	Emax ([3]; percent of maximum efficacy determined for TCDD, COS-7 cells, 24 h exposure, None = no agonistic response significantly different from solvent, read-out: Ahr1a Relative Emax (%)) [%]
Clc1cc2c(cc1Cl)Oc1cc(Cl)c(Cl)cc1O2 [TCDD, 2,3,7,8-Tetrachlorodibenzo-p-dioxin, reference compound]	0.008 to 0.018	6.2	99.4	1.7	99.7	–	–	–	–	–	–	–	–	–	–	–	–
COc1cc2ccc3c4ccccc4ccc3c2cc1OC [2,3-DMOC, 2,3-Dimethoxychrysene]	–	–	–	–	–	359	0.00911	359	lower efficacies in comparison to TCDD	activated the two Ahrs	55	212 to 213.5	199	0.0083	lower efficacies than TCDD	activated the two Ahrs	77.5
